Values quoted from earlier work, collected in patent US20070081962A1, “Novel delivery of immune response modifiers for removal of chronic tattoos” (priority 2005, published 2007).

Test system: freshly applied tattoos
Conditions: guinea pigs tattooed with commonly used tattoo inks; topical 5% cream, initiated within six hours of the tattoo application and continued for seven days

Q: With `CC(C)Cn1cnc2c(N)nc3ccccc3c21` [irmiquimod, 1-(2-methylpropyl)-1H-imidazo[4,5-c]quinolin-4-amine] as the molecule, how does the “removal of freshly applied tattoos” value read?
A: Its value is “effective for removing freshly applied tattoos”.
